Measurements as given in ChEMBL document CHEMBL5143534, “Synthesis and biological evaluation of BU-4664L derivatives as potential anticancer agents” (2022).

Legend:
[1] = test system: PC-3; assay: Antiproliferative activity against human PC-3 cells assessed as cell growth inhibition by MTT assay; type: functional
[2] = test system: NCI-H460; assay: Antiproliferative activity against human NCI-H460 cells assessed as cell growth inhibition by MTT assay; type: functional

SMILES | GI50 [1] | GI50 [2]
COc1ccc2c(c1)N(C/C=C(\C)CCC=C(C)C)C(=O)c1ccccc1N2 | 10.8 µM | 43.9 µM
COc1ccc2c(c1)N(Cc1cc(OC)c(OC)c(OC)c1)C(=O)c1ccccc1N2 | 10.2 µM | 34.8 µM
COc1ccc2c(c1)N(Cc1ccc(OC)c(OC)c1)C(=O)c1ccccc1N2 | 12.5 µM | 44.4 µM
COc1ccc2c(c1)N(C/C=C(\C)CC/C=C(\C)CCC=C(C)C)C(=O)c1ccccc1N2 | 11 µM | 34.4 µM
COc1ccc(CN2C(=O)c3ccccc3Nc3ccc(OC)cc32)cc1 | 10.6 µM | 
COc1ccc(CN2C(=O)c3ccccc3Nc3cnc(Cl)nc32)cc1OC | 8.31 µM | 
COc1ccc2c(c1)N(CC=C(C)C)C(=O)c1ccccc1N2 | 5.66 µM | 25.6 µM
CC(C)=CCN1C(=O)c2ccccc2Nc2cnc(Cl)nc21 | 6.12 µM | 38.1 µM
CC(C)=CCC/C(C)=C/CC/C(C)=C/CN1C(=O)c2cccc(O)c2Nc2c(O)cc(O)cc21 [DIAZEPINOMICIN] | 1.95 µM | 13.6 µM

Second part, the molecule after the results:

GI50 [1] | GI50 [2] | SMILES
5.94 µM | 19.9 µM | CC(C)=CCC/C(C)=C/CC/C(C)=C/CN1C(=O)c2ccccc2Nc2cnc(Cl)nc21
8.23 µM |  | COc1cc(CN2C(=O)c3ccccc3Nc3cnc(Cl)nc32)cc(OC)c1OC
7.37 µM | 36.6 µM | COc1ccc2c(c1)N(C/C=C/c1ccccc1)C(=O)c1ccccc1N2
7.29 µM | 24.3 µM | CC(C)=CCC/C(C)=C/CN1C(=O)c2ccccc2Nc2cnc(Cl)nc21
6.69 µM |  | COc1ccc(CN2C(=O)c3ccccc3Nc3cnc(Cl)nc32)cc1
12.5 µM |  | O=C1c2ccccc2Nc2cnc(Cl)nc2N1C/C=C/c1ccccc1
